“Also recorded” adds a separate entry of the source. Read-outs that look alike come from different tables or passages of the source.
Legend:
[1] = tested on: human osteogenic sarcoma (HOS) cells; experiment: Protein-linked DNA breaks in HOS cells (K-SDS precipitation); format: cell-based; conditions: for Induction of protein-linked DNA breaks: 30 minutes; for Induction of protein-linked DNA breaks in HOS cells: 20 micromolar, FIG. 9B; for Reversal of protein-linked DNA breaks after drug removal: an hour after removal
Procedure: Quantitation of protein-linked DNA breaks was performed according to a published procedure (Rowe). DNA in growing cells was labeled by adding methyl-^3 H-thymidine. […] Cells were lysed and protein-linked DNA complexes were precipitated by the K-SDS precipitiation method (Rowe).
(§1) A modified K-SDS precipitation assay was used to quantitate in vivo formation of protein-linked DNA breaks (Rowe). HOS cells were grown in Eagle's medium. The DNA in logarithmically growing cells (about 2×10^5 cells) was labelled by adding tritiated methyl-thymidine (specific activity: 40 Ci/mmol) into the medium to a final concentration of 0.5 microCurie per ml. After overnight incubation, cells were washed and incubated for another 2 hours at 37° C. The cells were then treated with various concentrations of drugs for 30 minutes. The cells were lysed with 1 ml prewarmed lysis solution containing 1.25% SDS, 5 mM EDTA (pH 8) salmon sperm DNA (0.4 mg/ml).
(§2) The lysate was transferred to a 1.5 ml Eppendorf tube and after syringing 8 times through a 22 G 11/2 gauge needle, 250 microliter of 325 mM KCl were added. The sample was cooled on ice for 10 minutes and centrifuged at 4° C. The pellet was resuspended in 10 mM Tris-HCl (pH 8)-100 mM KCl-1 mM EDTA and salmon sperm DNA (0.1 mg/ml) and placed at 65° C. for 10 minutes with occasional mixing. The suspension was cooled on ice for 10 minutes and recentrifuged. The pellet was washed again before resuspending in water (65° C.). The suspension was combined with 4 ml scintillation fluid and the radioactivity was determined.
(§3) Protein-linked DNA breaks assays were performed as described for Example 4 using HOS and HOS colR cells. Cells were treated with 20 micromolar […], TFC and TMBC.

[2] = tested on: mammalian DNA topoisomerase II; experiment: P4 DNA unknotting assay, topoisomerase II inhibition in vitro; format: biochemical, HeLa (human); conditions: for Topoisomerase II activity on decreasing drug concentration (P4 DNA unknotting): 2-fold serial dilutions; for Potency relative to VP-16 (topoisomerase II inhibition): more potent than VP-16
Procedure: DNA topoisomerase II was purified as described (Kashiwada). Briefly, a 150 mM NaCl extract from Triton X-100-treated HeLa cell nuclei was obtained. Salt was dialyzed and the partially purified enzyme was loaded on a heparin-Sepahrose CL-6B column and batch eluted with a buffer containing increasing salt concentrations.
Enzyme activity was measured using the P4 DNA unknotting assay (Liu, 1981). P4 DNA isolated from bacteriophage P4 consists of monomeric DNA circles with their cohesive ends hydrogen-bonded and contains multiple topological knots. Such highly knotted P4 DNA can be converted to its simple circular form by mammalian DNA topoisomerase II, and can be used as a sensitive assay to detect topoisomerase II activity.
P4 DNA unknotting reactions by topoisomerase II were performed in the absence or presence of potential topoisomerase II inhibitors. […] Products from the […] reactions were run out on an agarose gel to determine the extent of P4 DNA unknotting and stained with ethidium bromide.
Topoisomerase II was purified from calf thymus by a known method (Kashiwada). P4 DNA was prepared as described (Liu, 1983). Agarose gel assays for P4 DNA unknotting were performed as follows. Reactions (20 microliters) containing 50 mM Tris-HCl (pH 7.5), 100 mM KCl, 10 mM magnesium chloride, 1 mM ATP, 0.5 mM dithiothreitol, 0.5 mM EDTA, bovine serum albumin (30 microgram/ml), 100 ng P4 DNA, one unit of HeLa DNA topoisomerase II, and varying concentrations of topoisomerase II inhibitors were incubated at 37° C. After 30 minutes, reactions were terminated by addition of a solution containing 10% SDS. The samples were electrophoresed through a 1% agarose gel in 90 mM Trisborate (pH 8.3)-2 mM EDTA buffer (Rowe).

[3] = tested on: HIV replication; conditions: background (Baum); cited from earlier work
[4] = background; cited from earlier work
[5] = tested on: HOS colR cells; experiment: Protein-linked DNA breaks in HOS colR cells; format: cell-based, human; conditions: 20 micromolar, FIG. 9B
Procedure: The amount of protein-linked DNA breaks caused by VP-16, TFC and TMBC were compared in HOS and HOS colR cells to determine whether […] glycoprotein expression would affect these drugs' ability to induce protein-linked DNA breaks and inhibit topoisomerase II activity.
as §1, §2, §3

[6] = tested on: mammalian DNA topoisomerase II; conditions: D'Arpa; cited from earlier work
[7] = tested on: human osteogenic sarcoma (HOS) cells; experiment: HOS cell growth inhibition (antiproliferative activity); format: cell-based
Procedure: (§4) Additionally, baby hamster kidney (BHK) cell growth inhibition by these derivatives was investigated.
(§5) Cell growth inhibition assays were performed according to published procedures (Crumpton).
(§6) The HOS cell growth inhibition assays were done according to a published procedure (Crumpton). All cells were grown in Eagle's minimium essential medium supplemented with 10% fetal bovine serum. Flasks were seeded at a density of 1×10^3 cell/cm^2 for monolayer cultures or 2×10^4 /ml for suspension cultures. Suspension cultures were used immediately for drug addition after dilution to a suitable starting density, and, about 24 hours after seeding, the compounds to be tested were added to the monolayer cultures. […] Control flasks also contained 0.1% DMSO.
(§7) Colonies of about 50 or more cells were counted and the plating efficiency was calculated as the per cent cells that were able to form colonies (Goz).

[8] = tested on: baby hamster kidney (BHK) cells; experiment: BHK cell growth inhibition; format: cell-based
Procedure: as §4, §5, §6, §7

[9] = tested on: HOS cells; experiment: Plating efficiency / cytotoxicity in HOS cells; conditions: one-hour treatment, Table 1
Procedure: Plating efficiencies are indicative of a compound's cytotoxicity (Goz).
as §7

[10] = tested on: HOS cells resistant to colchicine (HOS colR), expressing p170 glycoprotein; experiment: HOS colR cell growth inhibition; format: cell-based, human; conditions: for EC50: HOS colR cells; for EC50 for HOS colR cells compared with HOS cells: HOS colR versus HOS not expressing p170
Procedure: as §5, §6, §7

[11] = tested on: BHK-B cells (vincristine-selected, expressing p170 glycoprotein); conditions: for BHK-B growth inhibition compared with BHK, in words: BHK-B versus BHK; for Export by the drug efflux pump: p170 glycoprotein, conclusion from BHK-B data; for EC50: read-out: BHK-B-EC50
Procedure: as §5
BHK-B cells are baby hamster kidney cells that have been selected with 0.05 microgram/ml vincristine and that express p170 glycoprotein. Sensitivity of BHK-B cells to TFC, TMBC and vincristine was investigated.
as §6, §7

[12] = tested on: BHK-Ve cells (BHK-B cells treated with vincristine in the presence of verapamil); experiment: BHK-Ve cell growth inhibition; format: cell-based, hamster
Procedure: as §5
Verapamil inhibits drug binding to the p170 glycoprotein drug efflux pump.
as §6, §7

[13] = read-out: EC50, HOS cell replication
[14] = 10-50 micromolar TFC, increasing concentrations TMBC
[15] = Table 2, read-out: HOS ColR EC50

| SMILES | Induction of protein-linked DNA breaks in HOS cells [1] | Induction of protein-linked DNA breaks in HOS colR cells [5] | EC50 ([7]; Table 1, read-out: HOS--EC50) | EC50 [7, 13] | HOS--LD50 [9] | Induction of protein-linked DNA breaks [1, 14] | Reversal of protein-linked DNA breaks after drug removal [1] | Potency relative to VP-16 (topoisomerase II inhibition) [2] | EC50 [10, 15] | EC50 ([10]; read-out: EC50, HOS colR cells) | EC50 for HOS colR cells compared with HOS cells [10] | BHK-B growth inhibition compared with BHK, in words [11] | Export by the drug efflux pump [11] | EC50 ([11]; BHK-B cells, Table 2) | EC50 ([12]; Table 2, read-out: BHK-Ve-EC50) | EC50 ([12]; read-out: EC50, BHK-Ve cells) | further results |
| --- | --- | --- | --- | --- | --- | --- | --- | --- | --- | --- | --- | --- | --- | --- | --- | --- | --- |
| COc1cc2c(c(OC)c1OC)-c1ccc(OC)c(=O)cc1[C@@H](NC(C)=O)CC2 [Colchicine, colchicine, reference compound] |  |  |  |  |  |  |  |  |  |  |  |  |  |  |  |  | Induction of protein-linked DNA breaks ([1]; colchicine 50 micromolar): did not induce protein-linked DNA breaks; Inhibition of topoisomerase II activity ([2]; concentrations as high as 200 micromolar): does not appear to inhibit topoisomerase II activity; Inhibition of HIV replication [3]: inhibitor of HIV replication; Toxicity at therapeutic doses [4]: usually at toxic or nearly toxic doses |
| COc1cc([C@@H]2c3cc4c(cc3[C@@H](O[C@@H]3O[C@@H]5CO[C@@H](C)O[C@H]5[C@H](O)[C@H]3O)[C@H]3COC(=O)[C@H]23)OCO4)cc(OC)c1O [VP-16, etoposide, reference compound] | very effective to cause protein-linked DNA breaks | limited effect in causing protein-linked DNA breaks |  |  |  |  |  |  |  |  |  |  |  |  |  |  | Topoisomerase II activity on decreasing drug concentration (P4 DNA unknotting) ([2]; 100 to 12.5 micromolar, FIG. 8 lanes 3-6): increase of topoisomerase II activity as the concentration of VP-16 is decreased; Topoisomerase II inhibition, known [6]: known to inhibit topoisomerase II activity |
| O=C(N[C@H]1CCc2cc(O)c(O)c(O)c2-c2ccc(O)c(=O)cc21)c1cc(O)c(O)c(O)c1 [TMBC, N-(3',4',5'-trihydroxybenzoyl)-1,2,3,10-tetrademethyldeacetylcolchicine] | can induce protein-linked DNA cleavage to a lesser extent | Neither protein-linked DNA cleavage by either TFC or TMBC appear to be affected by the expression of g170 glycoprotein | 21 µM | 21 µM | 18 µM | almost as effective as TFC for protein-linked DNA break induction; also recorded: induce protein-linked DNA breaks in a dose-dependent fashion | more slowly reversed than for TFC, so that after an hour's time after reversal some protein-linked DNA breaks still remain | ~17 fold | 28 µM | 28 µM | remained virtually unchanged | inhibited by approximately similar concentrations | are not | 13 µM | 24 µM | 24 µM | EC50 ([8]; Table 1, read-out: BHK--EC50): 28 µM; EC50 ([8]; read-out: EC50, BHK growth inhibition): 28 µM |
| CC[C@]1(O)C[C@H]2CN(CCc3c([nH]c4ccccc34)[C@@](C(=O)OC)(c3cc4c(cc3OC)N(C=O)[C@H]3[C@@](O)(C(=O)OC)[C@H](OC(C)=O)[C@]5(CC)C=CCN6CC[C@]43[C@@H]65)C2)C1 [Vincristine, reference compound] |  |  |  |  |  |  |  |  |  |  |  |  | exported by the drug efflux pump |  |  |  | BHK--EC50 ([8]; Table 1): 0.006 µg/mL; BHK-B-EC50 ([11]; BHK-B cells, Table 2): 0.34 µg/mL; Concentration necessary to inhibit BHK-B growth relative to BHK ([11]; hamster, bhk-b vs bhk cells): approximately 50 fold; BHK-Ve-EC50 / concentration necessary to inhibit BHK-Ve cell growth ([12]; Table 2): 2.7 µg/mL |
| O=C(N[C@H]1CCc2cc(O)c(O)c(O)c2-c2ccc(O)c(=O)cc21)C(F)(F)F [TFC, N-trifluoroacetyl-1,2,3,10-tetrademethyldeactylcolchicine] | can induce protein-linked DNA cleavage to a lesser extent | Neither protein-linked DNA cleavage by either TFC or TMBC appear to be affected by the expression of g170 glycoprotein | 28 µM | 28 µM | 14 µM | induces DNA breaks in a dose-dependent manner; also recorded: induce protein-linked DNA breaks in a dose-dependent fashion | within an hour all the protein-linked DNA breaks have been reversed | about 2 fold | 26 µM | 26 µM | remained virtually unchanged | inhibited by approximately similar concentrations | are not | 82 µM | 37 µM | 37 µM | Protein-linked DNA breaks reversed within half an hour of drug removal ([1]; within half an hour after removal): approximately 90%; Topoisomerase II activity on decreasing drug concentration (P4 DNA unknotting) ([2]; 50 to 6.25 micromolar, FIG. 8 lanes 7-10): more striking increase of enzyme activity as the concentration of TFC is decreased |
